Oligonucleotides are written 5' to 3', each unit as a sugar letter and its base; * is a phosphorothioate linkage, no mark a phosphodiester; rarer units and linkages stand in square brackets, end groups in braces. Plain capitals give the bases only. d = 2'-deoxy (DNA); r = 2'-OH (RNA)
These substances were tested against UBE2H (assay: reporter assay of Huesken 2005). Conditions: siRNA.
In the case of “sense rGrUrGrArArGrUrUrUrUrArUrGrGrArCrCrArCdTdT / antisense rGrUrGrGrUrCrCrArUrArArArArCrUrUrCrArCdTdA”, the normalised inhibition (eCFP-eYFP dual reporter) is reported as 63.8%. Work on “sense rGrArArUrArCrArArGrCrArGrArArArArUrUrAdTdT / antisense rUrArArUrUrUrUrCrUrGrCrUrUrGrUrArUrUrCdTdT” yielded a normalised inhibition (eCFP-eYFP dual reporter) of 93.1%. “sense rArGrGrGrUrArCrCrGrGrGrGrArCrArGrCrUrCdTdT / antisense rGrArGrCrUrGrUrCrCrCrCrGrGrUrArCrCrCrUdCdT” gave a normalised inhibition (eCFP-eYFP dual reporter) of 77.2%. Substance “sense rUrArCrCrArArUrArUrArUrUrUrGrArGrUrCrCdTdT / antisense rGrGrArCrUrCrArArArUrArUrArUrUrGrGrUrAdAdG” has a normalised inhibition (eCFP-eYFP dual reporter) of 48.6%. In the case of “sense rUrGrUrArGrUrGrArArGrUrUrUrUrArUrGrGrAdTdT / antisense rUrCrCrArUrArArArArCrUrUrCrArCrUrArCrAdAdA”, the normalised inhibition (eCFP-eYFP dual reporter) is reported as 75.6%. “sense rGrArArGrArArUrArCrArArGrCrArGrArArArAdTdT / antisense rUrUrUrUrCrUrGrCrUrUrGrUrArUrUrCrUrUrCdTdG” gave a normalised inhibition (eCFP-eYFP dual reporter) of 95.1%. Work on “sense rCrUrArUrGrArUrCrUrUrArCrCrArArUrArUrAdTdT / antisense rUrArUrArUrUrGrGrUrArArGrArUrCrArUrArGdAdG” yielded a normalised inhibition (eCFP-eYFP dual reporter) of 110%. With “sense rGrArUrCrUrUrArCrCrArArUrArUrArUrUrUrGdTdT / antisense rCrArArArUrArUrArUrUrGrGrUrArArGrArUrCdAdT” the normalised inhibition (eCFP-eYFP dual reporter) was 78.3%. With “sense rUrArGrArUrGrUrArArUrUrArArUrCrArArArCdTdT / antisense rGrUrUrUrGrArUrUrArArUrUrArCrArUrCrUrAdGdA” the normalised inhibition (eCFP-eYFP dual reporter) was 46.5%. “sense rCrUrUrGrGrArCrArGrCrUrCrUrCrUrArUrGrAdTdT / antisense rUrCrArUrArGrArGrArGrCrUrGrUrCrCrArArGdTdT” was tested, and the normalised inhibition (eCFP-eYFP dual reporter) was 81%. For “sense rCrCrUrArArCrCrCrCrArUrArGrArUrCrCrUrCdTdT / antisense rGrArGrGrArUrCrUrArUrGrGrGrGrUrUrArGrGdAdT”, the normalised inhibition (eCFP-eYFP dual reporter) was 66.9%. With “sense rArCrGrCrCrArCrGrGrArGrGrArGrGrCrGrCrUdTdT / antisense rArGrCrGrCrCrUrCrCrUrCrCrGrUrGrGrCrGrUdAdT” the normalised inhibition (eCFP-eYFP dual reporter) was 71.9%. In the case of “sense rCrCrArGrArArGrArArUrArCrArArGrCrArGrAdTdT / antisense rUrCrUrGrCrUrUrGrUrArUrUrCrUrUrCrUrGrGdTdC”, the normalised inhibition (eCFP-eYFP dual reporter) is reported as 104%. “sense rCrArGrCrCrArUrGrUrArCrCrUrCrCrArCrCrGdTdT / antisense rCrGrGrUrGrGrArGrGrUrArCrArUrGrGrCrUrGdCdA” was tested, and the normalised inhibition (eCFP-eYFP dual reporter) was 61.4%. Substance “sense rArArArArUrUrArArArGrArGrUrArCrArUrCrCdTdT / antisense rGrGrArUrGrUrArCrUrCrUrUrUrArArUrUrUrUdCdT” has a normalised inhibition (eCFP-eYFP dual reporter) of 70.5%. Substance “sense rArUrArCrCrCrUrUrUrCrArArArUrCrUrCrCrAdTdT / antisense rUrGrGrArGrArUrUrUrGrArArArGrGrGrUrArUdTdT” has a normalised inhibition (eCFP-eYFP dual reporter) of 99.2%. “sense rGrGrGrUrArCrCrGrGrGrGrArCrArGrCrUrCrAdTdT / antisense rUrGrArGrCrUrGrUrCrCrCrCrGrGrUrArCrCrCdTdC” gave a normalised inhibition (eCFP-eYFP dual reporter) of 71.9%. For “sense rCrArUrCrGrArGrArGrUrArArArCrArUrGrArGdTdT / antisense rCrUrCrArUrGrUrUrUrArCrUrCrUrCrGrArUrGdAdG”, the normalised inhibition (eCFP-eYFP dual reporter) was 70.2%. Work on “sense rArArArGrUrUrArGrArGrUrGrGrArCrCrUrArCdTdT / antisense rGrUrArGrGrUrCrCrArCrUrCrUrArArCrUrUrUdCdC” yielded a normalised inhibition (eCFP-eYFP dual reporter) of 50%. With “sense rGrGrCrGrCrUrGrArArArGrArArCrArGrGrArAdTdT / antisense rUrUrCrCrUrGrUrUrCrUrUrUrCrArGrCrGrCrCdTdC” the normalised inhibition (eCFP-eYFP dual reporter) was 98.5%. “sense rUrArUrCrCrUrArArCrCrCrCrArUrArGrArUrCdTdT / antisense rGrArUrCrUrArUrGrGrGrGrUrUrArGrGrArUrAdGdG” showed a normalised inhibition (eCFP-eYFP dual reporter) of 50.2%. “sense rGrArGrUrArCrArUrCrCrArGrArArArUrArCrGdTdT / antisense rCrGrUrArUrUrUrCrUrGrGrArUrGrUrArCrUrCdTdT” showed a normalised inhibition (eCFP-eYFP dual reporter) of 77.6%. In the case of “sense rArUrGrArGrGrUrUrArCrGrArUrCrCrUrGrGrGdTdT / antisense rCrCrCrArGrGrArUrCrGrUrArArCrCrUrCrArUdGdT”, the normalised inhibition (eCFP-eYFP dual reporter) is reported as 77.7%. In the case of “sense rArGrGrUrUrArCrGrArUrCrCrUrGrGrGrArGrGdTdT / antisense rCrCrUrCrCrCrArGrGrArUrCrGrUrArArCrCrUdCdA”, the normalised inhibition (eCFP-eYFP dual reporter) is reported as 84.1%. Work on “sense rUrGrArUrCrUrUrArCrCrArArUrArUrArUrUrUdTdT / antisense rArArArUrArUrArUrUrGrGrUrArArGrArUrCrAdTdA” yielded a normalised inhibition (eCFP-eYFP dual reporter) of 68.4%. Work on “sense rArUrUrUrGrArGrUrCrCrUrUrCrCrUrGrCrCrUdTdT / antisense rArGrGrCrArGrGrArArGrGrArCrUrCrArArArUdAdT” yielded a normalised inhibition (eCFP-eYFP dual reporter) of 48.2%. Substance “sense rCrGrUrCrArGrGrArArCrUrGrUrGrUrGrUrCrUdTdT / antisense rArGrArCrArCrArCrArGrUrUrCrCrUrGrArCrGdCdT” has a normalised inhibition (eCFP-eYFP dual reporter) of 99.9%. Work on “sense rGrArUrArArArUrArCrCrCrUrUrUrCrArArArUdTdT / antisense rArUrUrUrGrArArArGrGrGrUrArUrUrUrArUrCdAdG” yielded a normalised inhibition (eCFP-eYFP dual reporter) of 102%. In the case of “sense rCrArGrArArArArUrUrArArArGrArGrUrArCrAdTdT / antisense rUrGrUrArCrUrCrUrUrUrArArUrUrUrUrCrUrGdCdT”, the normalised inhibition (eCFP-eYFP dual reporter) is reported as 78.6%. “sense rCrArUrGrArArUrArArArArUrUrUrUrCrCrArUdTdT / antisense rArUrGrGrArArArArUrUrUrUrArUrUrCrArUrGdAdA” was tested, and the normalised inhibition (eCFP-eYFP dual reporter) was 64%. “sense rArArUrArUrArUrUrUrGrArGrUrCrCrUrUrCrCdTdT / antisense rGrGrArArGrGrArCrUrCrArArArUrArUrArUrUdGdG” was tested, and the normalised inhibition (eCFP-eYFP dual reporter) was 41.6%. For “sense rCrCrGrArCrCrArGrArArGrArArUrArCrArArGdTdT / antisense rCrUrUrGrUrArUrUrCrUrUrCrUrGrGrUrCrGrGdTdG”, the normalised inhibition (eCFP-eYFP dual reporter) was 86.4%. “sense rUrCrArUrCrGrArGrArGrUrArArArCrArUrGrAdTdT / antisense rUrCrArUrGrUrUrUrArCrUrCrUrCrGrArUrGrAdGdC” gave a normalised inhibition (eCFP-eYFP dual reporter) of 71.5%. “sense rGrGrArGrGrArGrGrCrGrCrUrGrArArArGrArAdTdT / antisense rUrUrCrUrUrUrCrArGrCrGrCrCrUrCrCrUrCrCdGdT” gave a normalised inhibition (eCFP-eYFP dual reporter) of 91.9%. In the case of “sense rArGrUrGrArArGrUrUrUrUrArUrGrGrArCrCrAdTdT / antisense rUrGrGrUrCrCrArUrArArArArCrUrUrCrArCrUdAdC”, the normalised inhibition (eCFP-eYFP dual reporter) is reported as 95.5%. “sense rGrUrCrUrArGrArUrGrUrArArUrUrArArUrCrAdTdT / antisense rUrGrArUrUrArArUrUrArCrArUrCrUrArGrArCdAdC” gave a normalised inhibition (eCFP-eYFP dual reporter) of 106%. For “sense rCrArGrArArGrArArUrArCrArArGrCrArGrArAdTdT / antisense rUrUrCrUrGrCrUrUrGrUrArUrUrCrUrUrCrUrGdGdT”, the normalised inhibition (eCFP-eYFP dual reporter) was 77.7%.
Further: test concentration or dose not given here.
